# From PubChem BioAssay (NCI)
#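 The compound was tested at five concentrations on cells cultured in 96-well plates, with a 48-hour exposure period. Definition used: TGI = concentration required for complete inhibition of growth.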
# Experiments:
# Assay in all cases: inhibition of tumour cell growth, NCI panel, 48 h
# [1] = system: EKVX NSCLC
# [2] = system: HOP-62 NSCLC
# [3] = system: HT29 colon
# [4] = system: LOX IMVI melanoma
# [5] = system: MCF7 breast
# [6] = system: MDA-MB-435
# [7] = system: NCI-H23 lung
# [8] = system: SF-295 CNS
# [9] = system: T-47D breast
# [10] = system: UACC-257 melanoma
Compound,TGI [1] [µM],TGI [2] [µM],TGI [3] [µM],TGI [4] [µM],TGI [5] [µM],TGI [6] [µM],TGI [7] [µM],TGI [8] [µM],TGI [9] [µM],TGI [10] [µM]
CCN(CC)CCOc1ccc(N2Cc3cc(OC)c(OC)cc3C2=O)cc1,> 100,> 100,> 100,> 100,> 100,> 100,> 100,> 100,> 100,> 100
c1ccc(C2C3=C(c4ccccc4CC3)N3c4cc5nc6ccccc6nc5cc4NC34CCCCC24)cc1 (configuration not stated),> 10,> 10,> 10,> 10,> 10,> 10,> 10,> 10,> 10,> 10
Cc1ccc(C2=NN=C3C(c4ccccc4)=Nc4ccccc4N3C2)cc1,> 42.6,> 63.8,> 81.1,> 100,> 89.3,> 100,> 100,> 100,> 100,33.6
C/C(=N/NC(=S)Nc1ccccc1C)c1ccccn1,6.46,8.99,31.8,15.7,12.8,15.5,27.2,5.63,3.49,1.88
CCc1nc2c(n1CC)C(=O)c1ccccc1C2=O,> 100,> 100,63.9,,> 100,32.2,> 100,> 100,57,51.4
CC(=O)OCC(OC(C)=O)C(OC(C)=O)C(/C=N\Nc1nc2ccccc2c(=O)[nH]1)OC(C)=O (configuration not stated),> 100,> 100,> 100,> 100,> 100,> 100,> 100,> 100,> 100,> 100
Clc1ccc(-c2cn3c(nc4ccccc43)c(/C=C/c3cccs3)n2)cc1,,> 100,> 100,> 100,> 100,> 100,> 100,,> 100,> 100
C=CC[C@H](O)[C@@](NC(=O)OCc1ccccc1)(Sc1ccc(C)cc1)C(F)(F)F,> 100,78.1,> 100,16.9,> 100,84,70.2,66.7,,74.1
CC(Cc1ccc(O)cn1)(NC(=O)c1ccccc1)C(=O)O (configuration not stated),> 100,> 100,> 100,> 100,,> 100,> 100,> 100,,> 100
CC1(C)CC(=O)c2c(nc3c(ccc4ccccc43)c2-c2ccc(NC(=O)CCCCCCCCC(=O)Nc3ccc(-c4c5c(nc6c4ccc4ccccc46)CC(C)(C)CC5=O)cc3)cc2)C1,> 100,> 100,> 100,> 100,> 100,> 100,,> 100,> 100,> 100
CC(=O)OC12c3ccccc3C(c3ccccc31)C1C(=O)N(Nc3ccccc3)C(=O)C12 (configuration not stated),> 100,> 100,> 100,> 100,> 100,,> 100,> 100,> 100,> 100
C/C(CC(O)(C(F)(F)Cl)C(F)(F)Cl)=N\Nc1ccccc1,93.8,,> 100,> 100,> 100,> 100,50,> 100,> 100,> 100
CC(=O)OCc1cc(OC(C)=O)c2cc3c(OC(C)=O)cccc3c(OC(C)=O)c2c1,34.1,39.6,43.9,,38.9,43.9,56.8,32.9,51.3,49.1
O=C(O)CSc1nc2ccccc2[nH]1,> 100,> 100,> 100,> 100,,> 100,> 100,> 100,> 100,> 100
CCOC(=O)C(=NN(C)c1ncccc1N)C(=O)OCC,,> 100,> 100,38.1,39.7,44.5,> 100,> 100,62.7,58.7
C=CC(Br)(CBr)CCC1OC1(C)C (configuration not stated),38.5,33.2,32.8,17.8,29.9,31.3,30.3,32,,27.7
CC1(C)OP(=O)(c2ccccc2)C=C1Br (configuration not stated),> 100,> 100,> 100,> 100,,> 100,> 100,> 100,> 100,> 100
Cc1ccc(S(=O)(=O)NN=C2C(C)CC(C(C)(C)C)CC2C)cc1 (configuration not stated),,31.6,32.8,33.2,38.6,34.9,56.5,33.1,50.7,36.6
CCOC(=O)C(=O)N=Nc1c(O)[nH]c2ccccc12,> 100,> 100,,> 100,> 100,> 100,> 100,> 100,> 100,> 100
CC1(C)OC[C@@H]([C@H](C=O)OCc2ccccc2)O1,> 100,> 100,> 100,> 100,> 100,> 100,> 100,> 100,,> 100
O=C1NC(=S)NC1C(Cc1ccccc1)c1ccco1 (configuration not stated),> 100,,> 100,> 100,> 100,> 100,> 100,> 100,> 100,> 100
